Source: patent US20170209499A1, “Propolis and Extracts Thereof for the Treatment of Skin Cancers and Improvement of Skin Health” (Manuka Health New Zealand Limited, priority 2014, published 2017)
Values joined by “and” are separate entries in the source; they are usually repeats but may differ in a detail not shown here. Equal values may be shown once.

What was measured:
Type in all cases: cell-based
[1] = test system: human melanoma cell line A-2058; experiment: MTT cell proliferation assay, human melanoma cell line A-2058; conditions: for Mean OD: MTT Optical Density at 570 nm
Text: This example describes the in vitro bioassay used for determining the anti-proliferative activity of test compounds and cyclodextrin-encapsulated propolis complexes against human skin cancer cell lines. The present example tests anti-proliferative efficacy against the human melanoma cell line, A-2058. The cyclodextrin-encapsulated propolis complexes tested are those described in Example 1. The NZ propolis was the same propolis used to manufacture the cyclodextrin complexes CD1-CD3. The Brazilian Green propolis was the same propolis used to manufacture the cyclodextrin complex CD4. The test samples were dissolved in 15% Ethanol (EtOH)/HBSS to make a working solution, which was then diluted 10 times to give a final concentration in the cells of 50 μg/ml unless indicated otherwise.
(§1) The three human skin cancer cell lines were: • 1) Human Melanoma cell line (A-2058). • 2) Human Epidermoid (Squamous) Carcinoma cell line (A-431). • 3) Human Basal Cell Carcinoma cell line (TE 354.T).
(§2) The cell lines were revived from cryostorage and cultured in the presence of the test and reference samples. An MIT assay was then performed on the cultures to determine the effect of the samples on the cell viability and proliferation. The percentage standard error of the mean was assessed and extreme outliers were removed if the SEM%>15. Preliminary statistical significance was assessed with an independent Student t-test at α<0.05 (with and without outliers). The methodology was based on the procedures reported by: • Ahn, N G, Campbell J S (1993). […] Proc Natl Acad Sci. 90: 5143-5147. • Galan-Cobo, A et al (2014). Functional inhibition of aquaporin-3 with a gold-based compound induces blockage of cell proliferation. J Cellul. Physiol. 229: 1787-1801. • Roomi, M W, Kalinovsky, J et al (2013) Effect of a nutrient mixture on matrix metalloproteinase-9 dimers in various human cancer cell lines. Inter 3 Oncol. 44: 936-942. • Huang, H C, Lin, M K et al (2013). Cardenolides and bufadienolide glycosides from Kalanchoe tubiflora and evaluation of cytotoxicity. Planta Medica. 79: 1362-1369. • Tilli, C M L J, Stavast-Kooy, A J W et al (2003). The garlic-derived organosulfur component ajoene decreases basal cell carcinoma tumor size by inducing apoptosis. Arch Dermatol Res. 295: 117-123.
• 1. Human melanoma cell line (A-2058, ATCC CRL11147) was obtained from ATCC, Bethesda, Md., USA. • 2. Human squamous (epidermoid) carcinoma cell line (A-431, ATCC CRL1555) was obtained from ATCC, Bethesda, Md. USA. • 3. Human basal cell carcinoma cell line (TE 354.T, ATCC CRL7762) was obtained from ATCC, Bethesda, Md., USA. • 4. Dulbecco's Modified Eagle's Medium (DMEM) was obtained from GIBCO (12100-038). 10% Foetal Bovine Serum (FBS), 100 U/ml Penicillin and […] Streptomycin were added before use. • 5. Penicillin-streptomycin solution, stored at −20° C. consisting of 10000 units/ml penicillin and 10 mg/ml streptomycin in 0.9% NaCl was obtained from Sigma (#P-0781). • 6. Trypsin-EDTA solution consisting of 0.25% Trypsin/EDTA was obtained from Invitrogen (#15400054). • 7. Phosphate buffered saline (PBS) was prepared in-house. • 8. Hanks Balanced Salt Solution (HBSS), stored at 4° C. was obtained from GIBCO (#14185-052). • 9. Foetal Bovine Serum (FBS) stored at −20° C. was obtained from GIBCO (#10091-148). • 10. MTT Reagent, 100 mg/vial, was obtained from Sigma (M-2128) and then dissolved in PBS at 10 mg/ml and stored at −20° C. A 5 mg/ml MTT solution was prepared in PBS and stored at 4° C. as the working solution. • 11. MU lysis buffer: 10% sodium dodecyl sulphate (SDS)/45% Dimethyl Formamide was prepared by dissolving 20 g SDS in 100 ml of double-distilled water (DDW), and then adding 90 ml of Dimethyl Formamide to the solution. The pH was adjusted to 4.7 by glacial acetic acid, and DDW added up to a final volume of 200 ml. • 12. 5-Fluorouracil (5-FU) was supplied by Sigma (F-6627). Three working solutions were prepared at 19.5 μg/ml. 6.5 μg/ml and 1.95 μg/ml dissolved in 15% Ethanol/HBSS. […]

[2] = test system: human basal carcinoma cell line TE 354.T; experiment: MTT cell proliferation assay, human basal cell carcinoma cell line TE 354.T; conditions: 200 μg/ml; for % inhibition / inhibition at 200 µg/mL: 24 hr incubation, vs cells only; for Mean OD: MTT Optical Density at 570 nm; for inhibition at 200 µg/mL: Homo sapiens
Experimental: as §1, §2
(§3) • 1. Human melanoma cell line (A-2058, ATCC CRL11147) was obtained from ATCC, Bethesda, Md., USA. • 2. Human squamous (epidermoid) carcinoma cell line (A-431, ATCC CRL1555) was obtained from ATCC, Bethesda, Md. USA. • 3. Human basal cell carcinoma cell line (TE 354.T, ATCC CRL7762) was obtained from ATCC, Bethesda, Md., USA. • 4. Dulbecco's Modified Eagle's Medium (DMEM) was obtained from GIBCO (12100-038). 10% Foetal Bovine Serum (FBS), 100 U/ml Penicillin and […] Streptomycin were added before use. • 5. Penicillin-streptomycin solution, stored at −20° C. consisting of 10000 units/ml penicillin and 10 mg/ml streptomycin in 0.9% NaCl was obtained from Sigma (#P-0781). • 6. Trypsin-EDTA solution consisting of 0.25% Trypsin/EDTA was obtained from Invitrogen (#15400054). • 7. Phosphate buffered saline (PBS) was prepared in-house. • 8. Hanks Balanced Salt Solution (HBSS), stored at 4° C. was obtained from GIBCO (#14185-052). • 9. Foetal Bovine Serum (FBS) stored at −20° C. was obtained from GIBCO (#10091-148). • 10. MTT Reagent, 100 mg/vial, was obtained from Sigma (M-2128) and then dissolved in PBS at 10 mg/ml and stored at −20° C. A 5 mg/ml MTT solution was prepared in PBS and stored at 4° C. as the working solution. • 11. MU lysis buffer: 10% sodium dodecyl sulphate (SDS)/45% Dimethyl Formamide was prepared by dissolving 20 g SDS in 100 ml of double-distilled water (DDW), and then adding 90 ml of Dimethyl Formamide to the solution. The pH was adjusted to 4.7 by glacial acetic acid, and DDW added up to a final volume of 200 ml. • 12. 5-Fluorouracil (5-FU) was supplied by Sigma (F-6627). Three working solutions were prepared at 19.5 μg/ml. 6.5 μg/ml and 1.95 μg/ml dissolved in 15% Ethanol/HBSS. Final concentrations were 1.95 μg/ml (15 μM), 0.65 μg/ml (5 μM) and 0.195 μg/ml (1.5 μM).
(§4) • 1. Each of the cell lines was revived from cryostorage. • 2. Following initial propagation using the media described above (Characterisation of Test System, and Medium Preparation), the cell culture was subcultured using trypsin-EDTA. The media was removed and 5ml of the trypsin-EDTA solution added and incubated at 37° C. for 5 min or until all the cells had detached. The trypsin was neutralised by the addition of an equal volume of the relevant medium and centrifugation of the suspension at 300 g (1200 rpm) for 5 min at 4° C. • 3. […]

[3] = test system: human epidermoid cancer cell line A-431; experiment: MTT cell proliferation assay, human epidermoid (squamous) carcinoma cell line A-431; conditions: A-431, 200 μg/ml; for % inhibition / inhibition at 200 µg/mL: 24 hr incubation, vs cells only; for Mean OD: MTT Optical Density at 570 nm; for inhibition at 200 µg/mL: Homo sapiens
Experimental: as §1, §2, §3, §4

[4] = Homo sapiens, A2058, 24 h, A-2058, final conc. 200 μg/ml, 24 hr incubation, vs cells only
[5] = A-2058, final conc. 200 μg/ml, 24 hr incubation, vs cells only

Row | Compound | Mean OD ([1]; A-2058, 200 μg/ml) | inhibition at 200 µg/mL [1, 4] | % inhibition [1, 5] | also measured
1 | O=C(O)/C=C/C=C/c1ccccc1 [5-phenyl penta-2,4-dienoic acid, 5-phenylpenta-2,4-dienoic acid] | 0.1548 | 23.1% | – | –
2 | COc1cc(/C=C/C(=O)OCc2ccccc2)ccc1O [Benzyl ferulate] | 0.0040 | 98% | completely killed all the melanoma cells | –
3 | O=C(/C=C/c1ccc(O)c(O)c1)OCCc1ccccc1 [CAPE, caffeic acid phenethyl ester, reference compound] | 0.1018 | 49.4% | 49.43% | –
4 | C=C(C)CCOC(=O)/C=C/c1ccc(O)c(O)c1 [Complex 3M3BC, 3-methyl-3-butenyl caffeate] | – | – | – | % inhibition [2]: weak inhibitors of proliferation; Mean OD [2]: 0.2245; inhibition at 200 µg/mL [2]: 16.7%; Mean OD ([1]; A-2058, 20 μg/ml): 0.1070; % inhibition ([1]; A-2058, final conc. 20 μg/ml, 24 hr incubation, vs cells only): 46.85%; inhibition at 20 µg/mL ([1]; Homo sapiens, A2058, 24 h, A-2058, final conc. 20 μg/ml, 24 hr incubation, vs cells only): 46.8%; % inhibition [3]: very strong inhibitors of proliferation; Mean OD [3]: 0.0475; inhibition at 200 µg/mL [3]: 81.9%
5 | CC(=O)OC1C(=O)c2c(O)cc(O)cc2OC1c1ccccc1 (stereo not drawn) [Pinobanksin-3-o-acetate, pinobanksin-3-acetate] | 0.0777 | 61.4% | 61.38% | % inhibition [2]: weak inhibitors of proliferation; Mean OD [2]: 0.2416; inhibition at 200 µg/mL [2]: 10.4%; % inhibition [3]: very strong inhibitors of proliferation; Mean OD [3]: 0.0253; inhibition at 200 µg/mL [3]: 90.4%
6 | COc1cc(O)c2c(=O)cc(-c3ccccc3)oc2c1 [Tectochrysin] | 0.0272 | – | 86.5% and 86.48% | –
7 | O=C(O)/C=C/c1ccc(O)cc1 [p-coumaric acid, reference compound] | 0.2136 | 0% | – | –
8 | O=C1C[C@@H](c2ccccc2)Oc2cc(O)cc(O)c21 [pinocembrin] | 0.0013 | 99.3% | completely killed all the melanoma cells | –
